In experiment [1] the target is GDP-bound KRAS wild-type protein (Homo sapiens, UniProt P01116). Nature of the experiment: Binding to KRAS by surface plasmon resonance (SPR), dissociation constant KD. The conditions noted are these: Single Cycle Kinetics, 1:1 binding model. In short, it runs like this: (§1)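 Compound binding is evaluated by SPR single-cycle kinetics, with concentrations added intermittently from low to high for 75 s each. Target surfaces carry GDP-loaded biotinylated Avi-RAS at about 100–300 RU, regenerated after each cycle; temperature 30°C. A 1:1 binding model gives KD.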
Sequence of GDP-bound KRAS wild-type protein (P01116 1-188 isoform P01116-2): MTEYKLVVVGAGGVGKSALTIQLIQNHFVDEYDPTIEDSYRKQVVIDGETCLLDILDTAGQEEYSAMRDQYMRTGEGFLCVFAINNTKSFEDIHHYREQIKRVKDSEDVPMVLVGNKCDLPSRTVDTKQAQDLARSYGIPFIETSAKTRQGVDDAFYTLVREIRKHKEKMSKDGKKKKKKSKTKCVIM
On the technique in general: Surface plasmon resonance follows binding to a sensor surface in real time, without labels.

Experiment [2] addresses GDP-bound NRAS wild-type protein (Homo sapiens, UniProt P01111). As to the kind of experiment: Binding to NRAS by surface plasmon resonance (SPR), KD and KD ratio to KRAS. Conditions: ratio of KD with respect to GDP-bound NRAS wild-type protein to KD with respect to KRAS. Summed up: as §1
In another experiment the target is HRAS wild-type protein (Homo sapiens, UniProt P01112). As to the kind of experiment: Binding to HRAS by surface plasmon resonance (SPR), KD and KD ratio to KRAS. Conditions: ratio of KD with respect to HRAS wild-type protein to KD with respect to KRAS. Summed up:
as §1

Experiment [3] has as its system human lung cancer strain NCI-H441. Nature of the experiment: NCI-H441 cell proliferation inhibitory activity (CellTiter-Glo, 4 days). Format: cell-based. The conditions noted are these: 50% proliferation inhibitory concentration, four days, read-out: NCl-H441 IC50. Summed up: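 Proliferation was scored by […] measured after the reagent was added to cultures kept at 37°C in 5% carbon dioxide.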

Sequence of GDP-bound NRAS wild-type protein (P01111 whole entry): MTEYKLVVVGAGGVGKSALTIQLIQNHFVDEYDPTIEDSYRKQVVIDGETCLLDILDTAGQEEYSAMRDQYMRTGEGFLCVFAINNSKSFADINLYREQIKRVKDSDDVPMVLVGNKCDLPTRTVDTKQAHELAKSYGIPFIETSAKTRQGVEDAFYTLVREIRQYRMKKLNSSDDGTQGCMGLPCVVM
Sequence of HRAS wild-type protein (P01112 whole entry): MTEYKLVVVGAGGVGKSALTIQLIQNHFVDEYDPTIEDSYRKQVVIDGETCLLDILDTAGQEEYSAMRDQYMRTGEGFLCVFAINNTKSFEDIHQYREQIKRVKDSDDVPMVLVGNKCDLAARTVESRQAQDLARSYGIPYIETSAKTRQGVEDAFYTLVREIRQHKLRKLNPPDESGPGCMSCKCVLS

Usually Kd stands for the constant that tells how readily two partners part at equilibrium. A low value points to tighter binding. As a reminder, the IC50 is the concentration needed to halve the response being measured. Regarding `CCO[C@@H]1C[C@H]2C(=O)NC3(CCC3)C(=O)N(C)[C@@H](C3CCCC3)C(=O)N(C)[C@H](C(=O)N3CCOCC3)CC(=O)N(C)[C@@H](CC(C)C)C(=O)N[C@@H]([C@@H](C)CC)C(=O)N3CC[C@H]3C(=O)N(C)[C@H]3CC[C@@H](C)CN(C3=O)[C@@H](Cc3ccc(C(F)(F)F)cc3)C(=O)N(C)CC(=O)N[C@@H](CCc3cc(F)c(C(F)(F)F)c(F)c3)C(=O)N2C1` [PP1373], in experiment [1], the affinity, expressed as Kd, was 0.35 nM. The “NRAS /KRAS” value in experiment [2] was “B (a compound having 3 or more and less than 10 is denoted as B)”. In addition, the “HRAS /KRAS” value on HRAS wild-type protein was “B (a compound having 3 or more and less than 10 is denoted as B)”. Further, the IC50 in experiment [3] worked out at 12.2 nM.

Take `CCO[C@@H]1C[C@H]2C(=O)NC3(CCC3)C(=O)N(C)[C@@H](C3CCCC3)C(=O)N(C)[C@H](C(=O)N3CCOCC3)CC(=O)N(C)[C@@H](CC)C(=O)N[C@@H]([C@@H](C)CC)C(=O)N3CC[C@H]3C(=O)N(C)[C@H]3CC[C@@H](C)CN(C3=O)[C@@H](Cc3ccc(C(F)(F)F)cc3)C(=O)N(C)CC(=O)N[C@@H](CCc3ccc(C(F)(F)F)c(Cl)c3)C(=O)N2C1` [PP1375]: the affinity in experiment [1], expressed as Kd, was 0.23 nM. Besides, in experiment [2], the “NRAS /KRAS” value was “B (a compound having 3 or more and less than 10 is denoted as B)”. The “HRAS /KRAS” value at HRAS wild-type protein was “B (a compound having 3 or more and less than 10 is denoted as B)”. Further, the IC50 in experiment [3] is 11.5 nM.

For `CCO[C@@H]1C[C@H]2C(=O)NC3(CCCC3)C(=O)N(C)[C@@H](C3CCCC3)C(=O)N(C)[C@H](C(=O)N(C)C)CC(=O)N(C)[C@@H](CC)C(=O)N[C@@H]([C@@H](C)CC)C(=O)N(C)CC(=O)N(C)[C@H]3CC[C@@H](C)CN(C3=O)[C@@H](Cc3ccc(C(F)(F)F)cc3)C(=O)N(C)CC(=O)N[C@@H](CCc3ccc(C(F)(F)F)c(Cl)c3)C(=O)N2C1` [PP1376], binding in experiment [1] was characterised by a dissociation constant (Kd) of 0.037 nM. In experiment [2], the “NRAS /KRAS” value was “B (a compound having 3 or more and less than 10 is denoted as B)”. Moreover, the “HRAS /KRAS” value on HRAS wild-type protein is “B (a compound having 3 or more and less than 10 is denoted as B)”. For the same compound, the IC50 in experiment [3] stood at 3.5 nM.

`CCO[C@@H]1C[C@H]2C(=O)NC3(CCCC3)C(=O)N(C)[C@@H](C3CCCC3)C(=O)N(C)[C@H](C(=O)N3CCOCC3)CC(=O)N(C)[C@@H](CC)C(=O)N[C@@H]([C@@H](C)CC)C(=O)N(C)CC(=O)N(C)[C@H]3CC[C@@H](C)CN(C3=O)[C@@H](Cc3ccc(C(F)(F)F)cc3)C(=O)N(C)CC(=O)N[C@@H](CCc3ccc(C(F)(F)F)c(Cl)c3)C(=O)N2C1` [PP1377] yielded a Kd in experiment [1] of 0.087 nM. Besides, the “NRAS /KRAS” value in experiment [2] was “B (a compound having 3 or more and less than 10 is denoted as B)”. For the same compound, on HRAS wild-type protein, the “HRAS /KRAS” value was “B (a compound having 3 or more and less than 10 is denoted as B)”. The IC50 in experiment [3] amounted to 5.8 nM.

Compound `CCO[C@@H]1C[C@H]2C(=O)NC3(CCC3)C(=O)N(C)[C@@H](C3CCCC3)C(=O)N(C)[C@H](C(=O)N3CCOCC3)CC(=O)N(C)[C@@H](CC)C(=O)N[C@@H]([C@@H](C)CC)C(=O)N(C)CC(=O)N(C)[C@H]3CC[C@@H](C)CN(C3=O)[C@@H](Cc3ccc(C(F)(F)F)cc3)C(=O)N(C)CC(=O)N[C@@H](CCc3ccc(C(F)(F)F)c(Cl)c3)C(=O)N2C1` [PP1378] displayed a Kd in experiment [1] of 0.081 nM. Further, in experiment [2], the “NRAS /KRAS” value was “B (a compound having 3 or more and less than 10 is denoted as B)”. Besides, the “HRAS /KRAS” value at HRAS wild-type protein is “C (A compound having a KD ratio of 0.1 or more and less than 3 is denoted as C)”. Moreover, the concentration for half-maximal inhibition (IC50) in experiment [3] was 6.6 nM.

Compound `CCO[C@@H]1C[C@H]2C(=O)NC3(CCC3)C(=O)N(C)[C@@H](C3CCCC3)C(=O)N(C)[C@H](C(=O)N3CCOCC3)CC(=O)N(C)[C@@H](CC(C)C)C(=O)N[C@@H]([C@@H](C)CC)C(=O)N3CC[C@H]3C(=O)N(C)[C@H]3CC[C@@H](C)CN(C3=O)[C@@H](Cc3ccc(C(F)(F)F)cc3)C(=O)N(C)CC(=O)N[C@@H](CCc3ccc(C(F)(F)F)c(Cl)c3)C(=O)N2C1` [PP1379] displayed a Kd in experiment [1] of 0.29 nM. The “NRAS /KRAS” value in experiment [2] is “A (a compound having 10 or more and less than 20 is denoted as A)”. In addition, the “HRAS /KRAS” value at HRAS wild-type protein is “B (a compound having 3 or more and less than 10 is denoted as B)”. In experiment [3], the IC50 came to 10.3 nM.
